Key:
[1] = tested on: ischemia-reperfusion induced heart failure; experiment: Model of chronic post-ischemic heart failure in rat (ischemia-reperfusion injury); type: in vivo
Method: Chronic heart failure was induced in male wistar rats (224-240 g, 10-11 weeks of age) by ischemia-reperfusion (I/R) injury. For I/R protocol, the left anterior descending (LAD) coronary artery was occluded for 1 h. Drug treatment (5 mg/kg/d or 10 mg/kg/d in drinking water) was initiated 1 week after reperfusion and was maintained for a 3 month study period. […] Cardiac specimens were also analyzed to assess hypertrophy and collagen content. The study design is depicted in FIG. 3. Experiments were performed in a blinded manner. On parameters measured over time, comparison of Sham versus Vehicle and comparison of drug treatments are analyzed by 2 way ANOVAs with repeated measures. On parameters measured at sacrifice and morphometry, comparisons of Sham versus Vehicle are analyzed by t-test and comparisons of drug treatments by 1-way ANOVA followed by Dunnett test.

WT mice = experiment: Voluntary wheel activity and EDL specific force in WT (C57BL/6) mice; type: in vivo, mouse; settings: 50 mg/kg/d
Method: (§1) Voluntary activity on wheel, body weight, and average water consumption were measured in the first 3 weeks. Specific muscle force was measured after 4 weeks of treatment, at the end of the study.
(§2) Distance traveled (Km/day) over a 24 hr period was analyzed as an index of improved functional activity (see, DMD_M.2.1.002 SOP at http://www.treat-nmd.eu/). At the conclusion of the study, Extensor digitorum longus (EDL) muscle was isolated for muscle force analysis as further described hereinbelow. Blood was collected from each mouse by retro-orbital bleeds at the end of the study (after end of dark cycle—about 7 AM) to assess drug plasma concentrations. Experiments were blinded.
At the end of the study, EDL muscle was dissected from hind limbs for isometric force analysis using the 407A Muscle Test System from Aurora Scientific (Aurora, Ontario, Canada). […] Force-frequency relationships were determined by triggering contraction using incremental stimulation frequencies (5-250 Hz for 200 ms at suprathreshold voltage). […] At the end of the force measurement, the length (Lo) of the EDL muscle while sutured in the Aurora system was measured excluding the tendons. […] The cross-sectional area (mm^2) of the EDL muscle was calculated by dividing the EDL muscle weight by the EDL muscle length and the mammalian muscle density constant of […] (Yamada, T., et al. Arthritis and rheumatism 60:3280-3289). […]

mdx mice = experiment: Muscle function in mouse muscular dystrophy model (mdx): voluntary wheel activity, EDL specific force; type: in vivo
Method: as §1, §2
At the end of the study, EDL muscle was dissected from hind limbs for isometric force analysis using the 407A Muscle Test System from Aurora Scientific (Aurora, Ontario, Canada). A 6-0 suture were tied to each tendon and the entire EDL muscle, tendon to tendon, was transferred to a Ragnoti bath of O2/CO2 (95%/5%) bubbled Tyrode solution (in mM: NaCl 121, KCl 5.0, CaCl2 1.8, MgCl2, NaH2PO4, NaHCO3 24, and glucose 5.5). Using the sutures, one tendon was tied vertically to a stainless steel hook connected to a force transducer The other sutured tendon was clamped down into a moving arm on the Aurora system. The EDL muscle was stimulated to contract using an electrical field between two platinum electrodes. At the start of each experiment, muscle length was adjusted to yield the maximum force. Force-frequency relationships were determined by triggering contraction using incremental stimulation frequencies (5-250 Hz for 200 ms at suprathreshold voltage). Between stimulations the muscle was allowed to rest ˜3 min. At the end of the force measurement, the length (Lo) of the EDL muscle while sutured in the Aurora system was measured excluding the tendons. The EDL muscle was then removed from the system and weighed after clipping the end tendons and sutures off. The EDL muscle was then frozen in liquid nitrogen. The cross-sectional area (mm^2) of the EDL muscle was calculated by dividing the EDL muscle weight by the EDL muscle length and the mammalian muscle density constant of […] (Yamada, T., et al. Arthritis and rheumatism 60:3280-3289). To determine EDL specific force (kN/m^2), the absolute tetanic force was divided by the EDL muscle cross-sectional area.
For statistical analysis of distance traveled, change from baseline was calculated for each day by subtracting the baseline value (defined as the mean of the two measurements obtained on Day −1 and Day −2) from each post dose assessment. Change from baseline was then statistically analyzed with a repeated measures analysis of variance model with fixed effects for treatment, day and treatment by day interaction. Baseline was included as a covariate and mouse was included as a random effect. The most appropriate covariance structure was determined through investigation of the Akaike's Information Criterion (AIC) and Bayesian Information Criterion (BIC). The covariance structures investigated were autoregressive, compound symmetry, unstructured, and toeplitz. The optimal covariance structure selected was compound symmetry. From the model, point estimates and associated 95% confidence intervals (CI) for the difference in change from baseline between each ARM210 treated mice group and vehicle treated group (for both mdx and C57BL/6 mice) were obtained for each day, each week, and the entire assessment period from Day 1 to Day 19. As this study is exploratory in nature, no adjustments in multiple comparisons were made.
Specific force was analyzed using a repeated measures analysis of variance model with fixed effects for treatment, frequency and treatment by frequency interaction and mouse as a random effect. Similar to the analysis described above, the optimal covariance structure was chosen from among autoregressive, compound symmetry, unstructured, and toeplitz. […]

rat hepatocytes = experiment: Metabolic stability in rat hepatocytes; type: in vitro ADME
Method: Compound solubilization: Stock solutions were made in DMSO, and working solutions in William medium containing 1/10 rat plasma or 1/4 human plasma.
Metabolic stability determination: Compounds were incubated at 10^−7 M with isolated hepatocytes (6E+5 cells/ml for rat hepatocytes and 4E+5 cells/ml for human hepatocytes) at 37° C. in plasma from the same species diluted in Wiliams medium (1/10 dilution for rat and 1/4 dilution for human). Sampling times were performed at 0, 10, 20, 30, 60 and 120 min and enzymatic reaction stopped with methanol (v/v). Proteins were precipitated by centrifugation and the supernatant was analyzed by LC/MS/MS. Clint expressed as ml/min/g protein were calculated as for hepatic microsomes using a ratio of 0.134 mg protein/ml for 4E+5 cells/ml for human and 0.201 mg protein/ml for 6E+5 cells/ml for rat. The presence of the reference drug and the potential metabolite was checked by LC/MS/MS during the assay in each sample.

[2] = Metabolic stability in rat hepatic microsomes (Clint, predicted MF %); type: in vitro ADME
Method: Compound solubilization: Stock solutions were made in DMSO, and working solutions in water containing 1 mg/ml BSA.
Prediction of metabolic bioavailability: Metabolic bioavailability predictions (MF %) were based on in vitro metabolic stability measurements with hepatic microsomes assuming total absorption. Briefly, unchanged drugs were quantified by LC-MS-MS following incubation (10^−7M) with rat and human hepatic microsomes (0.33 mg protein/ml) after 0, 5, 15, 30 and 60 min of incubation in presence of NADPH (1 mM). Enzymatic reaction was stopped with methanol (v/v) and proteins were precipitated by centrifugation. The in vitro intrinsic clearances (Clint_mic) expressed as ml/min/g protein were the slope (after LN linearization) of the unchanged drug remaining concentration versus incubation time. In vitro Clint were then scaled up to in vivo whole body (vivoClint) using 0.045 mg prot/kg of liver and liver weight of 11 g for the rat and 1.2 kg for Man.

[3] = 5 and 10 mg/kg/d in drinking water, one to three months, vs vehicle
[4] = 5 and 10 mg/kg/d, invasive hemodynamics at 3 months, vs vehicle
[5] = mdx and WT mice, drinking water

With `COc1ccc2c(c1)CN(Cc1ccc(C(=O)O)cc1)CCS2` [Compound 1, 4-((7-Methoxy-2,3-dihydrobenzo[f][1,4]thiazepin-4(5H)-yl)methyl)benzoic acid] the “systolic and diastolic cardiac function” value ([1]; 5 mg/kg/d in drinking water, 3 months) was “beneficial effects”, the interstitial collagen content ([1]; 5 and 10 mg/kg/d in drinking water, 3 months, vs vehicle) was “reduced” and the “Ejection Fraction (EF)” value [1, 3] was “significantly increased”. For the same compound, the “LVEDV (LV end diastolic volume)” value [1, 3] was “decreased”, the “LVESV (LV end systolic volume)” value [1, 3] was “decreased” and the “body weight (BW)” value ([1]; 5 and 10 mg/kg/d, 3 months) was “No effects”. The “hypertrophy (LV weight)” value ([1]; 5 and 10 mg/kg/d, 3 months) was “No effects”, the infarct size ([1]; 5 and 10 mg/kg/d, 3 months) was “No effects” and the LV systolic pressure ([1]; 5 and 10 mg/kg/d, invasive hemodynamics at 3 months) was “no statistically significant change”. For the same compound, the “LV dP/dt max” value [1, 4] was “preservation”, the “LV dP/dt min” value [1, 4] was “preservation” and the “travel distance on voluntary wheel” value (WT mice) was “No effect”. For the same compound, the “specific muscle force (EDL)” value (WT mice; 4 weeks) was “No effect”, the body weight (mdx mice; [5]) was “did not affect” and the water consumption (mdx mice; [5]) was “No dose-dependent effects”. The “specific muscle force (EDL)” value (mdx mice; mdx mice, 50 mg/kg/d, stimulation frequencies of 150 Hz and above, P<0.05) was “statistically significant increase”, the “specific force of EDL muscle” value (mdx mice; mdx mice, 5, 10 and 50 mg/kg/d, 4 weeks) was “increased specific force in mdx muscle dose-dependently” and the “distance traveled on voluntary wheel” value (mdx mice; mdx mice, 10 and 50 mg/kg/d (target dose) sodium salt in drinking water, day 1 to day 19, vs vehicle, P<0.001) was “significantly longer distances”. For the same compound, the “time to treatment effect on wheel activity after treatment initiation” value (mdx mice; mdx mice, drinking water) was 2 to 3 days, the MF rat % (rat hepatocytes) was 90% and the Clint (rat hepatocytes; 6.00E+05 cells/ml, 10^-7 M) was 5 ml/min/gprot. The “Class (metabolic bioavailability)” value [2] was “Inter- mediate”, the “Clint_mic rat (in vitro intrinsic clearance)” value ([2]; 10^-7 M, 0.33 mg protein/ml, NADPH) was 101 ml/min/gprot and the “MF mic % (metabolic bioavailability)” value ([2]; predicted from Clint assuming total absorption) was 30%.
